Here are results for 2 molecules from patent US4368267A, “Epoxidation of lower α-olefins” (priority 1980, dated 1983).

The subject of assay [1] is Methylobacter capsulatus Y (NRRL B-11,201). The experiment in a line: Methane hydroxylation and propylene epoxidation by washed cell suspensions. It counts as cell-based. Conditions: for Ability to hydroxylate methane or epoxidize C2 -C4 alkenes: methanol-grown washed cells.
For assay [2], the system named is Methylomonas albus BG8 (NRRL B-11,200). The experiment in a line: Methane hydroxylation and alkene epoxidation by washed cell suspensions. It counts as cell-based. Conditions: methane-grown washed cells, 30° C. As for the experimental part:
(§1) The pH of the nutrient medium was adjusted to 7.0 by the addition of acid or base and 50 ml aliquots of the nutrient medium was charged into a plurality of 300 ml shake flasks. […] The isolates had been maintained on agar plates under an atmosphere of methane and air having a 1:1 v/v gas ratio which had been transferred every two weeks. The gaseous phase of the inoculated flasks was then replaced with a gas mixture comprised of methane and air having a ratio of 1:1 on a v/v basis. The inoculated flasks were sealed air tight and were incubated on a rotary shaker of orbital radius 2.5 cm at 250 rpm and at 30° C. for two days until the turbidity in the medium had developed.
(§2) The cells were harvested by centrifugation at 10,000 ×g at 4° C. for 30 minutes. The cell pellet was washed twice with a 0.15 M phosphate buffer at a pH of 7.0 (containing 0.002 M MgCl2). The washed cells were then suspended in a 0.15 M phosphate buffer at pH 7.0.
(§3) A 0.5 ml aliquot of each washed cell suspension (2 mg cells) was put into 10 ml vials at 4° C. which were sealed with a rubber cap. The gaseous phase of the vials was removed with vacuum and then was replaced with a gas mixture of alkene and oxygen at a 1:1 v/v ratio. It was then incubated at 30° C. on a rotary shaker at 300 rpm. Samples of product (3 μl) were withdrawn periodically with a microsyringe and the products were analyzed by gas chromatography (ionization flame detector column).

The test system of assay [3] is Methylococcus capsulatus (CRL M1, NRRL B-11,219). As to the kind of experiment: Oxidation/epoxidation by washed cell suspensions. The class given is cell-based.
Assay [4] has as its system Methylomonas methanica S1 (NRRL B-11,199). The experiment in a line: Methane hydroxylation and alkene epoxidation by washed cell suspensions. It counts as cell-based. Conditions: for Ability to hydroxylate methane or epoxidize C2 -C4 alkenes: methanol-grown washed cells. As for the experimental part:
(§4) The pH of the nutrient medium was adjusted to 7.0 by the addition of acid or base and 50 ml aliquots of the nutrient medium was charged into a plurality of 300 ml shake flasks. […] The isolates had been maintained on agar plates under an atmosphere of methane and air having a 1:1 v/v gas ratio which had been transferred every two weeks. […] The inoculated flasks were sealed air tight and were incubated on a rotary shaker of orbital radius 2.5 cm at 250 rpm and at 30° C. for two days until the turbidity in the medium had developed.
as §2, §3

Assay [5] relates to Methylocystis parvus OBBP (NRRL B-11,198). The description is as above. It counts as cell-based. Conditions: for Ability to hydroxylate methane or epoxidize C2 -C4 alkenes: methanol-grown washed cells. As for the experimental part: as §4, §2, §3
The target in assay [6] is T1, cell-free fractions of Methylococcus capsulatus (CRL M1, NRRL B-11,219) (Methylococcus capsulatus, UniProt G1UBD1+Q603F1+Q607G3).
T1 sequence (G1UBD1 33-414): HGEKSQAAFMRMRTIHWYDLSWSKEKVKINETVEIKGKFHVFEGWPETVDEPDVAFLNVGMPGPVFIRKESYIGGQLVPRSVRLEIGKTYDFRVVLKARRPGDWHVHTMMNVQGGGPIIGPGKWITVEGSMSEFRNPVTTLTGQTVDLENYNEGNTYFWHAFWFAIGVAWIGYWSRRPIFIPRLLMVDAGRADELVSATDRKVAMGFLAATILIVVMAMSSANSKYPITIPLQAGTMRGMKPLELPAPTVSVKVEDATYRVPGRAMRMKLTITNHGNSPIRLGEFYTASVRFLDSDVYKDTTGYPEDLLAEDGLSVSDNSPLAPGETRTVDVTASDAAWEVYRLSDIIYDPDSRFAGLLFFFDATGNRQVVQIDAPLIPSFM
T1 sequence (Q607G3 1-247): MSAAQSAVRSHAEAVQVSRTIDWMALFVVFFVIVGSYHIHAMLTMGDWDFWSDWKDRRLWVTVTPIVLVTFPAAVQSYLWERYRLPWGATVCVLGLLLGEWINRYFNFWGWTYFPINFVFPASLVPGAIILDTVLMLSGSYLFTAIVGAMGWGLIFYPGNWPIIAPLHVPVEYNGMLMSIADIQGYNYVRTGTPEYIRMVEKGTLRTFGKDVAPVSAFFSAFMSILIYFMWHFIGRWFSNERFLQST
T1 sequence (Q603F1 1-260): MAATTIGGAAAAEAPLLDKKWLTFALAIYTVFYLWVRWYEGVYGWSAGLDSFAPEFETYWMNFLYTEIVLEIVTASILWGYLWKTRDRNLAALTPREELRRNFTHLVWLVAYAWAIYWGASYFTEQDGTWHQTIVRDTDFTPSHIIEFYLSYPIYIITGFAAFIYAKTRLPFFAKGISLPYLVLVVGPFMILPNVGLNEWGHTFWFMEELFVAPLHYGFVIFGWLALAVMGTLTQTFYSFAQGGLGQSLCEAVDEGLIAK
The experiment in a line: Epoxidation and hydroxylation activities in cell-free fractions. The class given is biochemical. How it is done:
Cells of methane-grown Methylococcus capsulatus (CRL M1, NRRL B-11,219) were obtained by the method of Example 1. […] However, when the cells were disrupted by passing twice through a French pressure cell (1000 Kg. pressure), both activities were found in the crude extract after 10,000×g. centrifugation. All of the activity in the crude extract was collected as a particulate fraction by further centrifugation of the crude extract at 40,000×g. for 90 min. at 4° C.

The subject of assay [7] is Methylobacterium organophilum XX (ATCC 27,886). The experiment in a line: Methane hydroxylation and propylene epoxidation by washed cell suspensions. It counts as cell-based. As to conditions: methane-grown washed cells, 30° C. How it is done: The pH of the nutrient medium was adjusted to 7.0 by the addition of acid or base and 50 ml aliquots of the nutrient medium was charged into a plurality of 300 ml shake flasks. The shake flasks were inoculated with an inoculating loop of cells from an agar plate containing homogeneous colonies of the microorganisms on the plate (the purity of the isolates were confirmed by microscopic examination). The isolates had been maintained on agar plates under an atmosphere of methane and air having a 1:1 v/v gas ratio which had been transferred every two weeks. The gaseous phase of the inoculated flasks was then replaced with a gas mixture comprised of methane and air having a ratio of 1:1 on a v/v basis. The inoculated flasks were sealed air tight and were incubated on a rotary shaker of orbital radius 2.5 cm at 250 rpm and at 30° C. for two days until the turbidity in the medium had developed.
The cells were harvested by centrifugation at 10,000 ×g at 4° C. for 30 minutes. The cell pellet was washed twice with a 0.15 M phosphate buffer at a pH of 7.0 (containing 0.002 M MgCl2). […]
A 0.5 ml aliquot of each washed cell suspension (2 mg cells) was put into 10 ml vials at 4° C. which were sealed with a rubber cap. […] Samples of product (3 μl) were withdrawn periodically with a microsyringe and the products were analyzed by gas chromatography (ionization flame detector column).

Assay [8] has as its system Methylosinus sporium 5 (NRRL B-11,197). The experiment in a line: Methane hydroxylation and alkene epoxidation by washed cell suspensions. The class given is cell-based. Conditions: methane-grown washed cells, 30° C. How it is done: as §1, §2
A 0.5 ml aliquot of each washed cell suspension (2 mg cells) was put into 10 ml vials at 4° C. which were sealed with a rubber cap. […] It was then incubated at 30° C. on a rotary shaker at 300 rpm. Samples of product (3 μl) were withdrawn periodically with a microsyringe and the products were analyzed by gas chromatography (ionization flame detector column).

The mark [9] stands for this setting: methane-grown washed cells, 30° C.
Setting [10] is: Particulate fraction (10,000 g.-40,000 g.), 1 mg. protein.
Setting [11] is: Supernatant fraction of 40,000 g., 2.5 mg. protein.

Values joined by “and” are separate entries in the source; they are usually repeats but may differ in a detail not shown here. Identical values can stand only once.

Take `C` [Methane]: the “Conversion rate, methane hydroxylation” value in assay [1] (setting [9]) was found to be 1.2 μmole/hr/mg protein; in assay [2] it was 1.8 μmole/hr/mg protein; in assay [4] (setting [9]), 1.3 μmole/hr/mg protein; in assay [5] (setting [9]) it was 0.7 μmole/hr/mg protein; in assay [7] it was 1.0 μmole/hr/mg protein. The “Ability to hydroxylate methane or epoxidize C2 -C4 alkenes” value in assay [1], in assay [4] and in assay [5] was “did not possess the ability” each time. Besides, the “Epoxidation Rate, Propylene oxide” value in assay [3] (Propylene + 5% methane, 1 Hr) is 2.0 μmoles/0.5 ml; in assay [3] (Propylene + 5% methane, 2 Hr), 4.0 μmoles/0.5 ml; in assay [3] (Propylene + 5% methane, 3 Hr) it was 4.1 μmoles/0.5 ml; in assay [3] (Propylene + 7% methane, 1 Hr), 2.3 μmoles/0.5 ml; in assay [3] (Propylene + 7% methane, 2 Hr), 4.7 μmoles/0.5 ml; in assay [3] (Propylene + 7% methane, 3 Hr), 4.8 μmoles/0.5 ml. Also, the “Epoxidation Rate, Propylene oxide” value is recorded as 3.5 μmoles/0.5 ml in assay [3] (Propylene + 15% methane, 1 Hr); 6.4 μmoles/0.5 ml in assay [3] (Propylene + 15% methane, 2 Hr); 6.5 μmoles/0.5 ml in assay [3] (Propylene + 15% methane, 3 Hr); 3.8 μmoles/0.5 ml in assay [3] (Propylene + 20% methane, 1 Hr); 7.1 μmoles/0.5 ml in assay [3] (Propylene + 20% methane, 2 Hr); 7.2 μmoles/0.5 ml in assay [3] (Propylene + 20% methane, 3 Hr). The “Inhibition of epoxidation of propylene to propylene oxide” value in assay [3] (cell suspension, in the presence of methane) was found to be 50%. Also, the “Oxidation Rate, Hydroxylation of Methane” value in assay [6] (setting [10]) is recorded as 500 μmoles/30 min/assay; in assay [6] (setting [11]), 0 μmoles/30 min/assay. Also, the “Conversion rate, methane hydroxylation (methane to methanol)” value in assay [8] is 1.1 μmole/hr/mg protein and 1.8 μmole/hr/mg protein.

As to `C=CC` [Propylene], the “Ability to hydroxylate methane or epoxidize C2 -C4 alkenes” value in assay [1], in assay [4] and in assay [5] was “did not possess the ability” each time. The “Conversion rate, propylene to propylene oxide” value was found to be 1.4 μmole/hr/mg protein in assay [2]; 2.7 μmole/hr/mg protein in assay [4] (setting [9]); 1.6 μmole/hr/mg protein in assay [5] (setting [9]); 1.8 μmole/hr/mg protein in assay [7]; 2.0 μmole/hr/mg protein in assay [8]. In addition, the “Epoxidation Rate, Propylene oxide” value in assay [3] (propylene alone (control), 1 Hr, 50% O2) is given as 2.0 μmoles/0.5 ml; in assay [3] (propylene alone (control), 2 Hr), 3.8 μmoles/0.5 ml. Moreover, the results for the “Oxidation Rate, Epoxidation of Propylene” value in assay [6] (setting [10]) and in assay [6] (setting [11]) were 750 μmoles/30 min/assay and 0 μmoles/30 min/assay, respectively.
